Patent US9988400B2 (Genentech, Inc., priority 2013, dated 2018)

Biological target: T1, HEK cells stably transfected with tetracycline inducible hNR1 and hNR2A (Homo sapiens, UniProt Q05586+Q12879)
T1 construct: expressed in transfected cells; host or cells: HEK cells, stably transfected, tetracycline/doxycycline inducible
Experiment: Assay 1: Cell-Based Assay, cytosolic calcium response to positive allosteric modulators (with 30 μM glycine and 300 nM L-glutamate, EC30)
Settings: Table 2; for EC50: cytosolic calcium response, with 30 μM glycine and 300 nM L-glutamate (EC30), — = no plateau was reached; for Max %: responses scaled relative to 100 μM L-glutamate maximal response (100%) and 0 μM L-glutamate (0%)
How it was run: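 Cells induced 24 h with 7.5 μg mL^−1 doxycycline plus 500 μM (+)-ketamine, loaded 60 min at 37 °C with calcium dye in Mg-free HBSS (1.8 mM Ca, probenecid, 10 μM (+)-ketamine, pH 7.15). Peak RFU over 5 min after compound addition, scaled to 100 μM L-glutamate (100%) and 0 μM (0%); four-parameter Hill fit for EC50, max % if no plateau.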

T1 sequence (Q12879 23-1464, other chains not shown): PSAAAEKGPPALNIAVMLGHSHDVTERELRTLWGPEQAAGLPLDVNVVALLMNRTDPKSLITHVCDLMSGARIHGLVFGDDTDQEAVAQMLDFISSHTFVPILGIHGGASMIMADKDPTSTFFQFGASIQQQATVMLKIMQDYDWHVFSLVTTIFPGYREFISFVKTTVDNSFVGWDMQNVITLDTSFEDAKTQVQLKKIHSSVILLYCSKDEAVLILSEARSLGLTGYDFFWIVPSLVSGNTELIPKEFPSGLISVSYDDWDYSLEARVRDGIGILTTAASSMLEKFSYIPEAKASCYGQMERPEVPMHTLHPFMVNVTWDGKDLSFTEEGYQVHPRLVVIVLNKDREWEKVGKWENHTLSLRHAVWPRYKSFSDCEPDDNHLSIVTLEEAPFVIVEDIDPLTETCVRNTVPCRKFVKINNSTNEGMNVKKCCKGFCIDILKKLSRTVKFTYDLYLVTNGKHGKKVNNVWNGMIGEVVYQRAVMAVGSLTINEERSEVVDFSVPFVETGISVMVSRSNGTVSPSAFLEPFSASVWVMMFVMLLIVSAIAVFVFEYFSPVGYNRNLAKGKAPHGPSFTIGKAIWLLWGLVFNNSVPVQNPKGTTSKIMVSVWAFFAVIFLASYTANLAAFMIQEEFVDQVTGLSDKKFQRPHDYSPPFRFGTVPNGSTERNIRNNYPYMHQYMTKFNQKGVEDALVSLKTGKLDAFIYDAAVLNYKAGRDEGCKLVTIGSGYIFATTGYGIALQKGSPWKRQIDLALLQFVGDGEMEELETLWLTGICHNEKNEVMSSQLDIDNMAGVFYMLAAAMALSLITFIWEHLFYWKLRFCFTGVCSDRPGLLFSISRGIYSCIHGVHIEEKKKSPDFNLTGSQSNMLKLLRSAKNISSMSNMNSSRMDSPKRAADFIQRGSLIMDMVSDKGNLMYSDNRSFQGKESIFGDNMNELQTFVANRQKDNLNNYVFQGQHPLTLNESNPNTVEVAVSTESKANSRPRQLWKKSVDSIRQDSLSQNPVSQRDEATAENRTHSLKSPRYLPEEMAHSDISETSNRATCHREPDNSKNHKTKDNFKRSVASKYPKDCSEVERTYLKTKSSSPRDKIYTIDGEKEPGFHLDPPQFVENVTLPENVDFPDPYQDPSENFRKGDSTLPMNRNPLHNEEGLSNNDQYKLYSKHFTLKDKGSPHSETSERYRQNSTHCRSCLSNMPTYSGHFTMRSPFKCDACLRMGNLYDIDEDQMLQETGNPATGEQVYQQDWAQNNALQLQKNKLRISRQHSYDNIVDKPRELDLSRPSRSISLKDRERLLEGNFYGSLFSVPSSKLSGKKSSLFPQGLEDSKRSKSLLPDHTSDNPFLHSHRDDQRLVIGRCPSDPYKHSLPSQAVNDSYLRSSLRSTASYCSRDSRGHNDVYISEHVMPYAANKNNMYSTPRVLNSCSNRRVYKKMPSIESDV

Structure (SMILES) | EC50 [µM] | Max % [%]
CCN(Cc1cc(=O)n2c(-c3ccco3)c(C)sc2n1)c1ccc(F)cc1 [Example 5.45, 7-((ethyl(4-fluorophenyl)amino)methyl)-3-(furan-2-yl)-2-methyl-5H-thiazolo[3,2-a]pyrimidin-5-one] | 0.214 | 139
CCN(Cc1cc(=O)n2c(-c3ccsc3)c(C)sc2n1)c1ccc(F)cc1 [Example 5.47, 7-((ethyl(4-fluorophenyl)amino)methyl)-2-methyl-3-(thiophen-3-yl)-5H-thiazolo[3,2-a]pyrimidin-5-one] | 0.976 | 151
Cc1sc2nc(CN3c4ccc(F)cc4CC3C)cc(=O)n2c1-c1cncnc1 (centres unmarked) [Example 5.48, 7-((5-fluoro-2-methylindolin-1-yl)methyl)-2-methyl-3-(pyrimidin-5-yl)-5H-thiazolo[3,2-a]pyrimidin-5-one] | 6.2 | 136
C=Cc1c(C)sc2nc(CN(CC)c3ccc(F)cc3)cc(=O)n12 [Example 5.53, 7-((ethyl(4-fluorophenyl)amino)methyl)-2-methyl-3-vinyl-5H-thiazolo[3,2-a]pyrimidin-5-one] | 1.3 | 153
CCN(Cc1cc(=O)n2c(-c3cc(F)cc(F)c3)c(C)sc2n1)c1ccc(F)cc1 [Example 5.55, 3-(3,5-difluorophenyl)-7-[(N-ethyl-4-fluoro-anilino)methyl]-2-methyl-thiazolo[3,2-a]pyrimidin-5-one] | 4.7 | 111
CCN(Cc1cc(=O)n2c(-c3ccnc(N)c3)c(C)sc2n1)c1ccc(F)cc1 [Example 5.57, 3-(2-amino-4-pyridyl)-7-[(N-ethyl-4-fluoro-anilino)methyl]-2-methyl-thiazolo[3,2-a]pyrimidin-5-one] | 6.4 | 120

Continued, values first:

EC50 [µM] | Max % [%] | Structure (SMILES)
1.1 | 158 | CCN(Cc1cc(=O)n2c(-c3ccoc3)c(C)sc2n1)c1ccc(F)cc1 [Example 5.44, 7-((ethyl(4-fluorophenyl)amino)methyl)-3-(furan-3-yl)-2-methyl-5H-thiazolo[3,2-a]pyrimidin-5-one]
3.8 | 155 | Cc1sc2nc(CN3c4ccc(F)cc4CC3C)cc(=O)n2c1-c1ccco1 (centres unmarked) [Example 5.46, 7-((5-fluoro-2-methylindolin-1-yl)methyl)-3-(furan-2-yl)-2-methyl-5H-thiazolo[3,2-a]pyrimidin-5-one]
12.9 | 127 | CCN(Cc1cc(=O)n2c(-c3nc(C)cs3)c(C)sc2n1)c1ccc(F)cc1 [Example 5.49, 7-((ethyl(4-fluorophenyl)amino)methyl)-2-methyl-3-(4-methylthiazol-2-yl)-5H-thiazolo[3,2-a]pyrimidin-5-one]
 | 96.8 | CCN(Cc1cc(=O)n2c(-c3ccc(=O)[nH]c3)c(C)sc2n1)c1ccc(F)cc1 [Example 5.50, 7-((ethyl(4-fluorophenyl)amino)methyl)-2-methyl-3-(6-oxo-1,6-dihydropyridin-3-yl)-5H-thiazolo[3,2-a]pyrimidin-5-one]
40.7 | 80.3 | CCN(Cc1cc(=O)n2c(-c3ccc(N)nc3)c(C)sc2n1)c1ccc(F)cc1 [Example 5.51, 3-(6-aminopyridin-3-yl)-7-((ethyl(4-fluorophenyl)amino)methyl)-2-methyl-5H-thiazolo[3,2-a]pyrimidin-3-one]
1.6 | 58 | CC#Cc1c(C)sc2nc(CN(CC)c3ccc(F)cc3)cc(=O)n12 [Example 5.52]
51.5 | 129 | CCN(Cc1cc(=O)n2c(Br)c(C3CC3)sc2n1)c1ccc(F)cc1 [Example 5.54, 3-bromo-2-cyclopropyl-7-[(N-ethyl-4-fluoro-anilino)methyl]thiazolo[3,2-a]pyrimidin-5-one]
 | 110 | CCN(Cc1cc(=O)n2c(-c3ccn(C)n3)c(C)sc2n1)c1ccc(F)cc1 [Example 5.56, 7-[(N-ethyl-4-fluoro-anilino)methyl]-2-methyl-3-(1-methylpyrazol-3-yl)thiazolo[3,2-a]pyrimidin-5-one]
